Among the data in PMC6009984, “Synthesis and biological evaluation of benzenesulphonamide-bearing 1,4,5-trisubstituted-1,2,3-triazoles possessing human carbonic anhydrase I, II, IV, and IX inhibitory activity” (Journal of Enzyme Inhibition and Medicinal Chemistry, 2017) are Ki and melting point values, retold here.

In one series the target is hCA I (Homo sapiens, UniProt P00915). In words: stopped-flow CO2 hydrase assay, hCA I.
The target of the next series is hCA II (Homo sapiens, UniProt P00918). Put plainly: stopped-flow CO2 hydrase assay, hCA II. The following applies: Ki (nM) hCA II, cytosolic isoform; mean from three different assays, stopped flow technique, errors ±5–10%.
Another series deals with hCA IX (Homo sapiens, UniProt Q16790). Put plainly: stopped-flow CO2 hydrase assay, hCA IX.
For a further series, the target named is hCA IV (Homo sapiens, UniProt P22748). In words: stopped-flow CO2 hydrase assay, hCA IV.
Sequence of hCA IV (P22748 19-312): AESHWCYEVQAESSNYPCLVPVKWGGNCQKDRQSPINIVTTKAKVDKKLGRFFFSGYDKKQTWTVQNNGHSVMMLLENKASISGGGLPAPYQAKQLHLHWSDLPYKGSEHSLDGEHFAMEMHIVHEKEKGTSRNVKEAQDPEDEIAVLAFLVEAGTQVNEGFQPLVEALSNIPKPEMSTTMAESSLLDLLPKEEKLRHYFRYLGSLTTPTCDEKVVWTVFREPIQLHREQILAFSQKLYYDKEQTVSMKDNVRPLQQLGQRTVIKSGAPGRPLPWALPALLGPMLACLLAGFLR

Sequence of hCA I (P00915 whole entry, canonical isoform): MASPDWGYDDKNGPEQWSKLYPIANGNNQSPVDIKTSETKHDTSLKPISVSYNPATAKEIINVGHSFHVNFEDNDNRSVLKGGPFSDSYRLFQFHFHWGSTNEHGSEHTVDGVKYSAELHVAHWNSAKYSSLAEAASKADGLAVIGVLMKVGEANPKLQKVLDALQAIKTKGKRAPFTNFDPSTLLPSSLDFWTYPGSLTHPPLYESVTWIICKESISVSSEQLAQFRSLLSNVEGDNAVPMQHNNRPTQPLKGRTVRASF

A word on the Ki: it is a dissociation constant, usually derived from enzyme kinetics or from competition with a known ligand. A higher Ki goes with weaker binding. The melting point is the temperature of the solid-liquid transition. For the compound `NNC(=O)c1nnn(-c2ccc(S(N)(=O)=O)cc2)c1-c1ccc2ccccc2c1` [Compound 7d, 4-[4-(Hydrazinocarbonyl)-5-(2-naphthyl)-1H-1,2,3-triazol-1-yl]benzenesulphonamide], the melting point came to 156 °C. Besides, on hCA I, the affinity, expressed as Ki, was 82.5 nM. Moreover, at hCA II, the Ki turned out to be 1.6 nM. This compound also came in with an inhibition constant (Ki) on hCA IX of 7.2 nM. The inhibitory constant (Ki) on hCA IV worked out at 2 nM.
In turn, `CCOC(=O)c1nnn(-c2ccc(S(N)(=O)=O)cc2)c1-c1ccc(OC)cc1` [Compound 4c, Ethyl 1-[4-(aminosulfonyl)phenyl]-5-(4-methoxyphenyl)-1H-1,2,3-triazole-4-carboxylate] had a melting point of 176 °C. This compound also showed a Ki on hCA I of 63 nM. At hCA II, this compound came in with a Ki of 6.1 nM. Further, the inhibitory constant (Ki) on hCA IX turned out to be 40 nM. Further, at hCA IV, the affinity, expressed as Ki, was 4.5 nM.
As for `Cc1c(C(=O)NN)nnn1-c1ccc(S(N)(=O)=O)cc1` [Compound 7a, 4-[4-(Hydrazinocarbonyl)-5-methyl-1H-1,2,3-triazol-1-yl]benzenesulphonamide], the inhibitory constant (Ki) was found to be 15.1 nM at hCA I, 7.6 nM on hCA II, 9.3 nM on hCA IX and 228 nM at hCA IV.
With `CCOC(=O)c1nnn(-c2ccc(S(N)(=O)=O)cc2)c1C` [Compound 4a, Ethyl 1-[4-(aminosulfonyl)phenyl]-5-methyl-1H-1,2,3-triazole-4-carboxylate], the Ki at hCA I came out at 9.1 nM; at hCA II, 3.2 nM; on hCA IX it was 6.6 nM; on hCA IV, 3.5 nM.
The compound `CCOC(=O)c1nnn(-c2ccc(S(N)(=O)=O)cc2)c1-c1ccccc1` [Compound 4b, Ethyl 1-[4-(aminosulfonyl)phenyl]-5-phenyl-1H-1,2,3-triazole-4-carboxylate] gave a melting point of 184 °C. The same compound returned a Ki on hCA I of 246 nM. This compound gave a Ki on hCA II of 6 nM. The compound also came in with a Ki on hCA IX of 9.5 nM. Besides, the affinity on hCA IV corresponds to a Ki of 5.1 nM.
In turn, `COc1ccc(-c2c(CO)nnn2-c2ccc(S(N)(=O)=O)cc2)cc1` [Compound 8c, 4-(4-(Hydroxymethyl)-5-(4-methoxyphenyl)-1H-1,2,3-triazol-1-yl)benzenesulphonamide] had a melting point of 180 to 182 °C. Further, the Ki on hCA I was 812 nM. Besides, affinity on hCA II was put at a Ki of 4 nM. The compound also returned an inhibition constant (Ki) at hCA IX of 5.8 nM. For the same compound, the Ki at hCA IV stood at 1.9 nM.
The compound `NS(=O)(=O)c1ccc(-n2nnc(CO)c2-c2ccccc2)cc1` [Compound 8b, 4-(4-(Hydroxymethyl)-5-phenyl-1H-1,2,3-triazol-1-yl)benzenesulphonamide] showed a melting point of 174 to 176 °C. This compound registered a Ki at hCA I of 78.9 nM. Also, the Ki at hCA II was determined as 9.4 nM. Also, the affinity at hCA IX, expressed as Ki, was 58.7 nM. This compound also came in with a Ki on hCA IV of 8.4 nM.
On to `NS(=O)(=O)c1ccc(-n2nnc(C(=O)O)c2-c2ccccc2)cc1` [Compound 5b, 1-[4-(Aminosulfonyl)phenyl]-5-phenyl-1H-1,2,3-triazole-4-carboxylic acid], for which the inhibitory constant (Ki) at hCA I came out at 646 nM; on hCA II, 97.9 nM; at hCA IX, 45.9 nM; on hCA IV it was 55.3 nM.
On to `Cc1c(C(=O)O)nnn1-c1ccc(S(N)(=O)=O)cc1` [Compound 5a, 1-[4-(Aminosulfonyl)phenyl]-5-methyl-1H-1,2,3-triazole-4-carboxylic acid], for which the melting point worked out at 198 °C. On hCA I, affinity was put at a Ki of 9.6 nM. The same compound came in with an inhibition constant (Ki) at hCA II of 1.6 nM. The same compound displayed a Ki on hCA IX of 8.5 nM. For the same compound, the Ki at hCA IV was 269 nM.
With `NC(=O)c1nnn(-c2ccc(S(N)(=O)=O)cc2)c1-c1ccc2ccccc2c1` [Compound 6d, 1-[4-(Aminosulfonyl)phenyl]-5-(2-naphthyl)-1H-1,2,3-triazole-4-carboxamide], the melting point is 278 to 280 °C. On hCA I, this compound came in with a Ki of 772 nM. At hCA II, the Ki was determined as 6 nM. The compound also returned a Ki on hCA IX of 6.7 nM. For the same compound, affinity at hCA IV was put at a Ki of 4 nM.
For the compound `Cc1c(C(N)=O)nnn1-c1ccc(S(N)(=O)=O)cc1` [Compound 6a, 1-[4-(Aminosulfonyl)phenyl]-5-methyl-1H-1,2,3-triazole-4-carboxamide], the melting point lay in the range of 314 to 316 °C. This compound also came in with a Ki on hCA I of 8.3 nM. On hCA II, this compound came in with an inhibition constant Ki of 1.9 nM. This compound showed a Ki at hCA IX of 9.5 nM. At hCA IV, this compound returned a Ki of 212 nM.
Take `NS(=O)(=O)c1ccc(-n2nnc(C(=O)O)c2-c2ccc3ccccc3c2)cc1` [Compound 5d, 1-[4-(Aminosulfonyl)phenyl]-5-(2-naphthyl)-1H-1,2,3-triazole-4-carboxylic acid]: the melting point was in the range of 198 to 200 °C. This compound also gave a Ki at hCA I of 56.2 nM. Further, the inhibition constant (Ki) on hCA II came out at 8.9 nM. Further, the inhibition constant (Ki) at hCA IX came to 4.2 nM. In addition, the Ki on hCA IV was 4.1 nM.
As for `CCOC(=O)c1nnn(-c2ccc(S(N)(=O)=O)cc2)c1-c1ccc2ccccc2c1` [Compound 4d, Ethyl 1-[4-(aminosulfonyl)phenyl]-5-(2-naphthyl)-1H-1,2,3-triazole-4-carboxylate], the melting point was found to be 180 °C. In addition, the Ki at hCA I was found to be 68.2 nM. Also, the Ki at hCA II was 5.8 nM. This compound also registered a Ki at hCA IX of 7.1 nM. This compound also came in with a Ki at hCA IV of 5 nM.
In the same order, the values of `COc1ccc(-c2c(C(N)=O)nnn2-c2ccc(S(N)(=O)=O)cc2)cc1` [Compound 6c, 1-[4-(Aminosulfonyl)phenyl]-5-(4-methoxyphenyl)-1H-1,2,3-triazole-4-carboxamide] are 280 to 282 °C, 874 nM, 6.2 nM, 6.8 nM and 1.7 nM.
In turn, `NNC(=O)c1nnn(-c2ccc(S(N)(=O)=O)cc2)c1-c1ccccc1` [Compound 7b, 4-[4-(Hydrazinocarbonyl)-5-phenyl-1H-1,2,3-triazol-1-yl]benzenesulphonamide] yielded a melting point of 206 °C. At hCA I, this compound showed a Ki of 73.7 nM. The compound further had a Ki at hCA II of 38 nM. Besides, on hCA IX, the affinity, expressed as Ki, was 26.1 nM. Moreover, the affinity at hCA IV, expressed as Ki, was 22.7 nM.
In the same order, the values of `Cc1c(CO)nnn1-c1ccc(S(N)(=O)=O)cc1` [Compound 8a, 4-(4-(Hydroxymethyl)-5-methyl-1H-1,2,3-triazol-1-yl)benzenesulphonamide] are 184 °C, 354 nM, 58.9 nM, 30.6 nM and 360 nM.
The like results for `COc1ccc(-c2c(C(=O)O)nnn2-c2ccc(S(N)(=O)=O)cc2)cc1` [Compound 5c, 1-[4-(Aminosulfonyl)phenyl]-5-(4-methoxyphenyl)-1H-1,2,3-triazole-4-carboxylic acid] were, in that order, 148 to 150 °C, 489 nM, 9 nM, 42.3 nM and 2.4 nM.
In the case of `NS(=O)(=O)c1ccc(-n2nnc(CO)c2-c2ccc3ccccc3c2)cc1` [Compound 8d, 4-(4-(Hydroxymethyl)-5-(2-naphthyl)-1H-1,2,3-triazol-1-yl)benzenesulphonamide], the melting point is 212 to 214 °C. The compound further yielded a Ki on hCA I of 214 nM. The same compound returned a Ki on hCA II of 8.1 nM. The Ki on hCA IX turned out to be 7.8 nM. Also, at hCA IV, the inhibition constant Ki came out at 1.9 nM.
`COc1ccc(-c2c(C(=O)NN)nnn2-c2ccc(S(N)(=O)=O)cc2)cc1` [Compound 7c, 4-[4-(Hydrazinocarbonyl)-5-(4-methoxyphenyl)-1H-1,2,3-triazol-1-yl]benzenesulphonamide]: the melting point was 170 to 172 °C. At hCA I, this compound yielded a Ki of 91.2 nM. Also, the Ki at hCA II worked out at 5.6 nM. The same compound had an inhibition constant Ki at hCA IX of 8.1 nM. Also, on hCA IV, the inhibition constant Ki stood at 4 nM.
`NC(=O)c1nnn(-c2ccc(S(N)(=O)=O)cc2)c1-c1ccccc1` [Compound 6b, 1-[4-(Aminosulfonyl)phenyl]-5-phenyl-1H-1,2,3-triazole-4-carboxamide] displayed a melting point of 210 °C. The compound also yielded a Ki on hCA I of 69.1 nM. Further, the Ki at hCA II was 9.1 nM. Further, at hCA IX, the affinity, expressed as Ki, was 28.3 nM. Also, affinity on hCA IV was put at a Ki of 1.4 nM.
